# Data published in patent US10221139B2, “Inhibitors of histone demethylases” (Gilead Sciences, Inc., priority 2012, dated 2019).
# Tests used:
# Type in all cases: biochemical
# [1] = target: T1, JMJD2A (KDM4A) (Homo sapiens, UniProt O75164); assay: Histone lysine demethylase AlphaLISA assay, JMJD2A; conditions: substrate BK9M3
# T1 construct: 1-350; purchased BPS, Bioscience, US; host or cells: E. coli
# T1 sequence (O75164 1-350): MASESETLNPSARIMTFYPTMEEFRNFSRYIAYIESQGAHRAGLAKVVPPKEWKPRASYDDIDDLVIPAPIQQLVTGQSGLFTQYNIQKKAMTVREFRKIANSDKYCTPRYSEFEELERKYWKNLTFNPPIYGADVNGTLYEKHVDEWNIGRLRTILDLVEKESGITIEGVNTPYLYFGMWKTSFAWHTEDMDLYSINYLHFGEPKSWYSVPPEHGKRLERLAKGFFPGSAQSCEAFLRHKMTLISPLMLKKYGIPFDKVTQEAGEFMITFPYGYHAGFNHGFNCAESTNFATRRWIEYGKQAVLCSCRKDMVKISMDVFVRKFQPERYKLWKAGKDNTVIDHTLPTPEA
# Description: (§1) Example 2: Histone Lysine Demethylase AlphaLISA Assays for IC50 Value Determination
# (§2) Assays are performed analogously to the protocol described by Perkin Elmer (Roy et al. Perkin Elmer Technical Note: AlphaLISA #12, April 2011).
# (§3) Enzymes are dissolved in enzyme buffer and incubated for 10 min before 5 μL is added to 5 μL 3% DMSO solutions of compounds in enzyme buffer. Incubated for another 10 minutes, before 5 μL substrate solution is added and the reaction mixture is incubated at room temperature for the given period. 10 μL acceptor beads, suspended at given dilutions in Epigenetic Buffer (Perkin Elmer AL008) from stock, are added and the suspension is incubated 60 minutes in the dark at room temperature, before 10 μL suspension (at the given dilutions in Epigenetic Buffer) of streptavidin donor beads (Perkin Elmer 6760002) in Epigenetic Buffer is added. After incubation at room temperature in the dark the plates are read. Reaction conditions are seen in Table 2b.
# [2] = target: T2, GASC1 (KDM4C, JMJD2C) (Homo sapiens, UniProt Q9H3R0); assay: Histone lysine demethylase AlphaLISA assay, GASC1; conditions: substrate BK9M3
# T2 construct: 1-349; host or cells: E. coli
# T2 sequence (Q9H3R0 1-349): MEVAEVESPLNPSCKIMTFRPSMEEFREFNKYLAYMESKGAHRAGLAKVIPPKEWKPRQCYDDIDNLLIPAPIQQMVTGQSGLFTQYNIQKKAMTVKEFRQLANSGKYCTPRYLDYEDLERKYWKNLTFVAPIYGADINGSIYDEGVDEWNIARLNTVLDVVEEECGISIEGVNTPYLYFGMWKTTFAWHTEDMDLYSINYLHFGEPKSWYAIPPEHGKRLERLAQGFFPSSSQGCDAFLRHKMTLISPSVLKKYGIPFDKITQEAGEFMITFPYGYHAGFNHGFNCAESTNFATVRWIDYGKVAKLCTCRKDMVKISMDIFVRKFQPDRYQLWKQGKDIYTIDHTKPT
# Procedure, shortened: (§4)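 Enzyme was preincubated 10 min, then 10 min with compounds in 3% DMSO buffer before substrate addition; reaction ran at room temperature. AlphaLISA acceptor beads (60 min, dark) and streptavidin donor beads were added before reading for IC50.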
# [3] = target: T3, JARID1C (KDM5C) (Homo sapiens, UniProt P41229); assay: Histone lysine demethylase AlphaLISA assay, JARID1C; conditions: substrate H3K4M3B
# T3 construct: 2-1560; purchased BPS; host or cells: Bac (baculovirus)
# T3 sequence (P41229 2-1560): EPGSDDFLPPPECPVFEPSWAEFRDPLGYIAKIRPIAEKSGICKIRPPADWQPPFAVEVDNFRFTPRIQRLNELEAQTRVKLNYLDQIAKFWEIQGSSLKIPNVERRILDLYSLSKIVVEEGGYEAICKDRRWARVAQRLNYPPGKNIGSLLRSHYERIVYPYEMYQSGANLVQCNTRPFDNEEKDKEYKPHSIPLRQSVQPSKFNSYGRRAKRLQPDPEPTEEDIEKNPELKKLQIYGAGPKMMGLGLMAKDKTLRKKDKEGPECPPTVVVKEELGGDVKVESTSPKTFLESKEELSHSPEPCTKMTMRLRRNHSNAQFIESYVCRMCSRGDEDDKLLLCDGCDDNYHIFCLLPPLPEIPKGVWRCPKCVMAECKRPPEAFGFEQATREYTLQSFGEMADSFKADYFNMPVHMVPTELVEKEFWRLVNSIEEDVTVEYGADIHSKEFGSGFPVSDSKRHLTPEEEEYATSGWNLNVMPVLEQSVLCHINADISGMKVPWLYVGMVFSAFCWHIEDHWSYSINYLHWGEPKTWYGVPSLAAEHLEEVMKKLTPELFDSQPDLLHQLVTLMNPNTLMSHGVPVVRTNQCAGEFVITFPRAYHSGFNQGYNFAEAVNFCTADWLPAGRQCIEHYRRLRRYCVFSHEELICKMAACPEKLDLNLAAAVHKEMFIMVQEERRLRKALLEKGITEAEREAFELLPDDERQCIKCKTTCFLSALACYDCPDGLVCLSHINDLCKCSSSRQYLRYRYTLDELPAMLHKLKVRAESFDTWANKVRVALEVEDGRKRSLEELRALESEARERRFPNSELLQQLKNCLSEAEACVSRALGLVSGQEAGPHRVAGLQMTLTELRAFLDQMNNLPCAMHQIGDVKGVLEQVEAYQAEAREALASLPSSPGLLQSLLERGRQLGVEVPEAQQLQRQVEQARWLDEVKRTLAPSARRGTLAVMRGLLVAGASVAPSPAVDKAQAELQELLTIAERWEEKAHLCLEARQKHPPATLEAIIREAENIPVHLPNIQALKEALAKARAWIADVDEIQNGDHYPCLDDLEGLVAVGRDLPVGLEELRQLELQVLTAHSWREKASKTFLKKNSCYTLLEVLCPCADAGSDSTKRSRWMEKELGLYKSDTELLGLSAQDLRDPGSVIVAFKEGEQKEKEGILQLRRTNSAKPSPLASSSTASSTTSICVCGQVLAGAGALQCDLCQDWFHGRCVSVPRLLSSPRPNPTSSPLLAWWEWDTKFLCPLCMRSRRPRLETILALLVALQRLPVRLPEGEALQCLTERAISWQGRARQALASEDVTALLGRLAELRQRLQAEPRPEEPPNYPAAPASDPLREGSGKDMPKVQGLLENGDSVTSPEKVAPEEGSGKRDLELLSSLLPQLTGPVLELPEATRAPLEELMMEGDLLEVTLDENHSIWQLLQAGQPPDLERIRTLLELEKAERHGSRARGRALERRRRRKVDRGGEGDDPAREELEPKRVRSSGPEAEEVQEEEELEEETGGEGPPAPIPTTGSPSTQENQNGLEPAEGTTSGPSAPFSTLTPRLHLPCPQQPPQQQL
# Description: as §1, §2, §3
# [4] = target: T4, JMJD3 (KDM6B) (Homo sapiens, UniProt O15054); assay: Histone lysine demethylase AlphaLISA assay, JMJD3; conditions: substrate BK27M3
# T4 construct: 1043-end; purchased BPS; host or cells: Bac (baculovirus)
# T4 sequence (O15054 1043-1682 isoform O15054-1 limits assumed): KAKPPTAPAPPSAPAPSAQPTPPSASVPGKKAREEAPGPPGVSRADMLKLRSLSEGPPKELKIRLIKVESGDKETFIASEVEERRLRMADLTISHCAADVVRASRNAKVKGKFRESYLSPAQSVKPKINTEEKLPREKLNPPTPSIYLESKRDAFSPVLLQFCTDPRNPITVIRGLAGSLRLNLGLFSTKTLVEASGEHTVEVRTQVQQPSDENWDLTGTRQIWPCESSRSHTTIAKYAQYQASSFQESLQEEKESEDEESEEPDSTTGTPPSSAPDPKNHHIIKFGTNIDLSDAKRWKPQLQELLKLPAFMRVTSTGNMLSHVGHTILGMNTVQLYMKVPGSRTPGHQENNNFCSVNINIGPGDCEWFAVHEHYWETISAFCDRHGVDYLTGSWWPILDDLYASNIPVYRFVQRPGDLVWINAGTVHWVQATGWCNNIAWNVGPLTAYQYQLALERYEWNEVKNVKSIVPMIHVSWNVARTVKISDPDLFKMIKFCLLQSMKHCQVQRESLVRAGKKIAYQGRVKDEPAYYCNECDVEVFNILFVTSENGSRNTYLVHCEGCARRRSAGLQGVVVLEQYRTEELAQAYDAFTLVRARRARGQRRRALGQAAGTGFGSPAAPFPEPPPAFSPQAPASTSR
# Description: as §1, §2, §3
# [5] = target: T5, FBXL10 (KDM2B) (Homo sapiens, UniProt Q8NHM5); assay: Histone lysine demethylase AlphaLISA assay, FBXL10; conditions: substrate BH3K36M2
# T5 construct: 1-650; purchased BPS, Bioscience, US; host or cells: Bac (baculovirus)
# T5 sequence (Q8NHM5 1-650): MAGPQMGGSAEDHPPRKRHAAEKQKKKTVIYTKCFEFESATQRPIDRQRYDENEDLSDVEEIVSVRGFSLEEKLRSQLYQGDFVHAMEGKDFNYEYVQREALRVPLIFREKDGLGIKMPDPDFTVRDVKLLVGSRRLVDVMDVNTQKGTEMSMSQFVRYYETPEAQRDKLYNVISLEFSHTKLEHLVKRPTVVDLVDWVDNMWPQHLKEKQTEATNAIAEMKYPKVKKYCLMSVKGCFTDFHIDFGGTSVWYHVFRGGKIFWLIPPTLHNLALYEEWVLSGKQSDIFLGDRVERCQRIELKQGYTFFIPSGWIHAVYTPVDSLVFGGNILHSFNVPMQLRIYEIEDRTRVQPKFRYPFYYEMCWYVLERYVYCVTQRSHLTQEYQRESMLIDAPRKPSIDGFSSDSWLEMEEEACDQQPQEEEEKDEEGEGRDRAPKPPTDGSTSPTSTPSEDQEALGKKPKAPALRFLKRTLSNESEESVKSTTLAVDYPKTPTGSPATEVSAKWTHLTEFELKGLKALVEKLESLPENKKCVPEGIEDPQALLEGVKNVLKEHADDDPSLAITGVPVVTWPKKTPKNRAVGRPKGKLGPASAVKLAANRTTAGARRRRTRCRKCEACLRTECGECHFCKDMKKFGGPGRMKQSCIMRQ
# Description: as §1, §2, §3
# [6] = target: T6, UTX (KDM6A) (Homo sapiens, UniProt O15550); assay: Histone lysine demethylase AlphaLISA assay, UTX; conditions: substrate BK27M3
# T6 construct: 919-1401; host or cells: E. coli
# T6 sequence (O15550 919-1401): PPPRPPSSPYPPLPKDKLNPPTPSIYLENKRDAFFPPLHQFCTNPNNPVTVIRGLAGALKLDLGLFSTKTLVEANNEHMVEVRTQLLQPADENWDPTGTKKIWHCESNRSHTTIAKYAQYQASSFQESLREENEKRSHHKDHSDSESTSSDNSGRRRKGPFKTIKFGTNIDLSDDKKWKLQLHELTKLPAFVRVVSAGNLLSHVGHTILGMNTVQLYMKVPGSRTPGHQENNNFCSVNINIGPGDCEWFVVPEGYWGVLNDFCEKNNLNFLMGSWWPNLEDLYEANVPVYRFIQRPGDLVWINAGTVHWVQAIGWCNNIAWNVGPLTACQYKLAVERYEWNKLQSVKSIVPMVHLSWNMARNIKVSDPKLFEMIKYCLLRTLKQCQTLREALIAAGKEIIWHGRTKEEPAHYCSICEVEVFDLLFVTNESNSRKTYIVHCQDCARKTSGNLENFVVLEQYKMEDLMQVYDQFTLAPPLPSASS
# Procedure, shortened: as §4
# [7] = target: T7, JMJD1B (KDM3B) (Homo sapiens, UniProt Q7LBC6); assay: Histone lysine demethylase AlphaLISA assay, JMJD1B; conditions: substrate BK9M2
# T7 construct: 842-1761; host or cells: Bac (baculovirus)
# T7 sequence (Q7LBC6 842-1761): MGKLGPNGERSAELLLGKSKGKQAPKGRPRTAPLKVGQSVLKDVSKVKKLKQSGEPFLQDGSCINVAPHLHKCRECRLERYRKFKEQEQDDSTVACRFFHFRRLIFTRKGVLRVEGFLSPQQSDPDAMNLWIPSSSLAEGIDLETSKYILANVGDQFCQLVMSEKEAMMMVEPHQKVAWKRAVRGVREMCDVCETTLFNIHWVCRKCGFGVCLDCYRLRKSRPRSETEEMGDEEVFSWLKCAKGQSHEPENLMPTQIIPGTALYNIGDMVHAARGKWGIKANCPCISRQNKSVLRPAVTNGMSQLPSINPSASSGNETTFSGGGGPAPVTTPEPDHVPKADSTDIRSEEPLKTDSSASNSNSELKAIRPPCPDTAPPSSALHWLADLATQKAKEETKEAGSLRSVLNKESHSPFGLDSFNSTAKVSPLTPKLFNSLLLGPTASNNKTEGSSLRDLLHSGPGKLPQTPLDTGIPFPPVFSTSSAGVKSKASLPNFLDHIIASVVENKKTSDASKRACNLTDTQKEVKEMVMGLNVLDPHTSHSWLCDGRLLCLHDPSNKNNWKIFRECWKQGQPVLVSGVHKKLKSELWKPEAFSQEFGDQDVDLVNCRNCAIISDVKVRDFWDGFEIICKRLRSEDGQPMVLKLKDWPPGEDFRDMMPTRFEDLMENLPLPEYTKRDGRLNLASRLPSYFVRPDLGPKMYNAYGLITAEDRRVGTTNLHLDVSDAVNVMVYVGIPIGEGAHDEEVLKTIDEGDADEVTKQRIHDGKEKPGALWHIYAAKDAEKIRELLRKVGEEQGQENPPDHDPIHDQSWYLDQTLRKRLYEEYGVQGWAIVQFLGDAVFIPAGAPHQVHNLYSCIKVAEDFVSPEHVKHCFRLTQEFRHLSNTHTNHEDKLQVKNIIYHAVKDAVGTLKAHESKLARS
# Description: as §1, §2, §3
# [8] = target: T8, JMJD2B (KDM4B) (Homo sapiens, UniProt O94953); assay: Histone lysine demethylase AlphaLISA assay, JMJD2B; conditions: substrate BK9M3, read-out: JMUD2B IC50
# T8 construct: 2-500; purchased BPS; host or cells: Bac (baculovirus)
# T8 sequence (O94953 2-500): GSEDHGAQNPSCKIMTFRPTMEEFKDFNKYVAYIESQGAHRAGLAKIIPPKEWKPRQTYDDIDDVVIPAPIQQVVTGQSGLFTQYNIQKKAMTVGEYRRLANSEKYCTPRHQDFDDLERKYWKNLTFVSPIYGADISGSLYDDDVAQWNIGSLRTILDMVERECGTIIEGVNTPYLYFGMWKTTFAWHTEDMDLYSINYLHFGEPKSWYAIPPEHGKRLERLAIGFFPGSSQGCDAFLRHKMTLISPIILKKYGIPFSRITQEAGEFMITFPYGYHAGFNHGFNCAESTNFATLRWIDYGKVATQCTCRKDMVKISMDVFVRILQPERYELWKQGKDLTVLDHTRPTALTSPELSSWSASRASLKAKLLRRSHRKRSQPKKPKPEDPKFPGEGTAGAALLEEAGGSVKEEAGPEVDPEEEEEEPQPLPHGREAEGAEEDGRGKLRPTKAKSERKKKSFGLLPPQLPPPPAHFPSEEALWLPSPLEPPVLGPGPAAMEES
# Description: as §1, §2, §3
# [9] = target: T9, PLU1 (KDM5B) (Homo sapiens, UniProt Q9UGL1); assay: Histone lysine demethylase AlphaLISA assay, PLU1; conditions: substrate H3K4M3B
# T9 construct: 1-809; host or cells: E. coli
# T9 sequence (Q9UGL1 1-809): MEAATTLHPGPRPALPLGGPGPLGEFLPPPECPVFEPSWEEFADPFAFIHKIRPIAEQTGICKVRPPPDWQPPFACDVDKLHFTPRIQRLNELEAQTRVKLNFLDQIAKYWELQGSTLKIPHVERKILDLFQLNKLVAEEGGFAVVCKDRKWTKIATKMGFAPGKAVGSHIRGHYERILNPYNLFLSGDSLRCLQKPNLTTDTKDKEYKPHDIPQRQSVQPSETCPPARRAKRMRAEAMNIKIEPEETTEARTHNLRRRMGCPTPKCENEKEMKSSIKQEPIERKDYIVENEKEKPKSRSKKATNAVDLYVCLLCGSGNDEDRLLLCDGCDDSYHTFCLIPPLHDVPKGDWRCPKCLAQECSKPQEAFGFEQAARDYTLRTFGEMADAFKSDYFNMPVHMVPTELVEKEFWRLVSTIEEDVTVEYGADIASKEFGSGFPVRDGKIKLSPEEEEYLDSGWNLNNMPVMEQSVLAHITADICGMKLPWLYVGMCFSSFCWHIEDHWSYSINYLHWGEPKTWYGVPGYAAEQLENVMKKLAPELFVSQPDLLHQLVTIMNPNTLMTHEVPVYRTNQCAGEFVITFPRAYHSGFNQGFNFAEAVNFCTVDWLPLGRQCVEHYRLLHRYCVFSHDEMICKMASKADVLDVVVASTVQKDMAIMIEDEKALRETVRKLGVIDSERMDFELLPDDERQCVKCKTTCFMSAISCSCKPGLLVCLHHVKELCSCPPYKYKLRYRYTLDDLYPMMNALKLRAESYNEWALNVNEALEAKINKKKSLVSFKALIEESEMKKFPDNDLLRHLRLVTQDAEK
# Procedure, shortened: as §4
# [10] = target: T10, PHF8 (KDM7) (Homo sapiens, UniProt Q9UPP1); assay: Histone lysine demethylase AlphaLISA assay, PHF8; conditions: substrate BK9M2
# T10 construct: KDM7 (PHF8); BRIC; 1-1322; Bac
# T10 sequence (Q9UPP1 37-477 limits assumed): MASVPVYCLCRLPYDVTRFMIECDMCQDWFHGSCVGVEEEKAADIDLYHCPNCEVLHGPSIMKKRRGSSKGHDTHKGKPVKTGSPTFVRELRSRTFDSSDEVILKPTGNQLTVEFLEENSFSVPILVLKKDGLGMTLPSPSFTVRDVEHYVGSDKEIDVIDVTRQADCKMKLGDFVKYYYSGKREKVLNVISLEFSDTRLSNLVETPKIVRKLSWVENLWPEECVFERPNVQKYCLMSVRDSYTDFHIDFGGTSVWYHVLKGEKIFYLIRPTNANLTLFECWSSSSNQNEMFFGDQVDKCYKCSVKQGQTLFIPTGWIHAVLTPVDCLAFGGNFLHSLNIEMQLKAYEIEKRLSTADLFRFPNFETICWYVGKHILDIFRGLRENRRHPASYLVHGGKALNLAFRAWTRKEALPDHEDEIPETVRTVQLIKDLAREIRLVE
# Description: as §1, §2, §3
SMILES,IC50 [1] [nM],IC50 [2] [nM],IC50 [3] [nM],IC50 [4] [nM],IC50 [5] [nM],IC50 [6] [nM],IC50 [7] [nM],IC50 [8] [nM],IC50 [9] [nM],IC50 [10] [nM]
"O=C(O)c1ccnc(CNCCCn2ccnc2)c1 [#1, 2-({[3-(1H-imidazol-1-yl)propyl]amino}methyl)pyridine-4-carboxylic acid]",< 100,100 to 1000,< 100,≥ 1000,≥ 1000,≥ 1000,–,–,–,–
"CN(C)CCNCc1cc(C(=O)O)ccn1 [#2, 2-({[2-(dimethylamino)ethyl]amino}methyl)pyridine-4-carboxylic acid]",< 100,< 100,–,≥ 1000,–,≥ 1000,≥ 1000,< 100,–,–
"COc1ccc(CNCc2cc(C(=O)O)ccn2)c(OC)c1 [#11, 2-({[(2,4-dimethoxyphenyl)methyl]amino}methyl)pyridine-4-carboxylic acid]",≥ 1000,≥ 1000,–,≥ 1000,–,≥ 1000,≥ 1000,≥ 1000,< 100,–
"Cn1c(CNCc2cc(C(=O)O)ccn2)nc2ccccc21 [#15, 2-({[(1-methyl-1H-1,3-benzodiazol-2-yl)methyl]amino}methyl)pyridine-4-carboxylic acid]",< 100,100 to 1000,< 100,≥ 1000,–,≥ 1000,–,< 100,< 100,–
"O=C(O)c1ccnc(CN[C@@H]2CCN(CCCc3ccccc3)C2)c1 [#28, 2-({[(3R)-1-(3-phenylpropyl)pyrrolidin-3-yl]amino}methyl)pyridine-4-carboxylic acid]",100 to 1000,≥ 1000,–,≥ 1000,≥ 1000,≥ 1000,≥ 1000,100 to 1000,–,≥ 1000
"O=C(O)c1ccnc(CNCCCN2CCCC2)c1 [#46, 2-({[3-(pyrrolidin-1-yl)propyl]amino}methyl)pyridine-4-carboxylic acid]",100 to 1000,100 to 1000,< 100,≥ 1000,–,≥ 1000,–,< 100,< 100,≥ 1000
"CCN(CC)CCCCNCc1cc(C(=O)O)ccn1 [#48, 2-({[4-(diethylamino)butyl]amino}methyl)pyridine-4-carboxylic acid]",≥ 1000,< 100,< 100,≥ 1000,–,≥ 1000,–,< 100,< 100,≥ 1000
